In US9513294B2, “Megastokes amino-triazolyl-BODIPY compounds and applications to live neuron staining and human serum albumin FA1 drug site probing” (National University of Singapore, priority 2012, dated 2016):

assay: Quantum yield measurements versus Acridine Yellow in EtOH; format: physicochemical; conditions: MKAC compound library; quantum yield
Outline: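 Emission areas integrated over 510–700 nm were compared with Acridine Yellow in ethanol (Φ=0.47), all excited at 460 nm. The comparative equation was normalized to excitation-wavelength absorbance and solvent refractive index.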

Point of comparison: `CC(=O)Nc1ccc(C2=C3C=CC(NCc4cc(F)cc(F)c4)=[N+]3[B-](F)(F)n3c2ccc3-n2cc(CCc3ccccc3)nn2)cc1` [MKAC412-19], “φ (%)” value 24.16%. Against it:
- CC(=O)Nc1ccc(C2=C3C=CC(NCc4cc(F)cc(F)c4)=[N+]3[B-](F)(F)n3c2ccc3-n2cc(CN(C)Cc3ccccc3)nn2)cc1 [MKAC412-18] — lower, 21.83%
- CC(=O)Nc1ccc(C2=C3C=CC(NCc4cc(F)cc(F)c4)=[N+]3[B-](F)(F)n3c2ccc3-n2cc(CC(C)C)nn2)cc1 [MKAC412-43] — lower, 18.26%
- CCCc1cn(-c2ccc3n2[B-](F)(F)[N+]2=C(NCc4cc(F)cc(F)c4)C=CC2=C3c2ccc(NC(C)=O)cc2)nn1 [MKAC412-48] — lower, 22.19%
- CCCCCC(O)c1cn(-c2ccc3n2[B-](F)(F)[N+]2=C(NCc4cc(F)cc(F)c4)C=CC2=C3c2ccc(NC(C)=O)cc2)nn1 (stereo not drawn) [MKAC412-69] — lower, 17.68%
- CC(=O)Nc1ccc(C2=C3C=CC(NCc4cc(F)cc(F)c4)=[N+]3[B-](F)(F)n3c2ccc3-n2cc(CO)nn2)cc1 [MKAC412-70] — lower, 3.96%

same assay, conditions: MKCA compound library; quantum yield

Point of comparison: `CC(C)Cc1cn(-c2ccc3n2[B-](F)(F)[N+]2=C(N4CC(C)OC(C)C4)C=CC2=C3c2ccc(NC(=O)CCl)cc2)nn1` (stereo not drawn) [MKCA20-43], “φ (%)” value 2.19%. Against it:
- CCCC(C)c1cn(-c2ccc3n2[B-](F)(F)[N+]2=C(N4CC(C)OC(C)C4)C=CC2=C3c2ccc(NC(=O)CCl)cc2)nn1 (stereo not drawn) [MKCA20-3] — higher, 3.15%
- CC1CN(C2=[N+]3C(=C(c4ccc(NC(=O)CCl)cc4)c4ccc(-n5cc(C6CC6)nn5)n4[B-]3(F)F)C=C2)CC(C)O1 (stereo not drawn) [MKCA20-4] — higher, 6.11%
- CC1CN(C2=[N+]3C(=C(c4ccc(NC(=O)CCl)cc4)c4ccc(-n5cc(C6CCCC6)nn5)n4[B-]3(F)F)C=C2)CC(C)O1 (stereo not drawn) [MKCA20-5] — higher, 4.60%
- CC1CN(C2=[N+]3C(=C(c4ccc(NC(=O)CCl)cc4)c4ccc(-n5cc(CC6CCCCC6)nn5)n4[B-]3(F)F)C=C2)CC(C)O1 (stereo not drawn) [MKCA20-8] — higher, 6.71%
- CC1CN(C2=[N+]3C(=C(c4ccc(NC(=O)CCl)cc4)c4ccc(-n5cc(CN(C)Cc6ccccc6)nn5)n4[B-]3(F)F)C=C2)CC(C)O1 (stereo not drawn) [MKCA20-18] — higher, 2.54%
- CC1CN(C2=[N+]3C(=C(c4ccc(NC(=O)CCl)cc4)c4ccc(-n5cc(CCc6ccccc6)nn5)n4[B-]3(F)F)C=C2)CC(C)O1 (stereo not drawn) [MKCA20-19] — higher, 5.32%
- CCCc1cn(-c2ccc3n2[B-](F)(F)[N+]2=C(N4CC(C)OC(C)C4)C=CC2=C3c2ccc(NC(=O)CCl)cc2)nn1 (stereo not drawn) [MKCA20-48] — higher, 4.88%
- CCCCCC(O)c1cn(-c2ccc3n2[B-](F)(F)[N+]2=C(N4CC(C)OC(C)C4)C=CC2=C3c2ccc(NC(=O)CCl)cc2)nn1 (stereo not drawn) [MKCA20-69] — higher, 3.23%

assay: Absorbance and fluorescence emission spectra (SpectraMax M2); format: physicochemical; conditions: MKAC compound library; absorbance maximum
Outline: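 Spectroscopic data, including quantum yields, were recorded with a SpectraMax M2 instrument and analysed in GraphPrism.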

Point of comparison: `CCCCCC(O)c1cn(-c2ccc3n2[B-](F)(F)[N+]2=C(NCc4cc(F)cc(F)c4)C=CC2=C3c2ccc(NC(C)=O)cc2)nn1` (stereo not drawn) [MKAC412-69], “λmax Abs. (nm)” value 468 nm. Against it:
- CC(=O)Nc1ccc(C2=C3C=CC(NCc4cc(F)cc(F)c4)=[N+]3[B-](F)(F)n3c2ccc3-n2cc(CN(C)Cc3ccccc3)nn2)cc1 [MKAC412-18] — lower, 465 nm
- CC(=O)Nc1ccc(C2=C3C=CC(NCc4cc(F)cc(F)c4)=[N+]3[B-](F)(F)n3c2ccc3-n2cc(CCc3ccccc3)nn2)cc1 [MKAC412-19] — lower, 467 nm
- CC(=O)Nc1ccc(C2=C3C=CC(NCc4cc(F)cc(F)c4)=[N+]3[B-](F)(F)n3c2ccc3-n2cc(CC(C)C)nn2)cc1 [MKAC412-43] — lower, 467 nm
- CCCc1cn(-c2ccc3n2[B-](F)(F)[N+]2=C(NCc4cc(F)cc(F)c4)C=CC2=C3c2ccc(NC(C)=O)cc2)nn1 [MKAC412-48] — lower, 467 nm
- CC(=O)Nc1ccc(C2=C3C=CC(NCc4cc(F)cc(F)c4)=[N+]3[B-](F)(F)n3c2ccc3-n2cc(CO)nn2)cc1 [MKAC412-70] — lower, 461 nm

same assay, conditions: MKAC compound library; fluorescence emission maximum

Point of comparison: `CCCCCC(O)c1cn(-c2ccc3n2[B-](F)(F)[N+]2=C(NCc4cc(F)cc(F)c4)C=CC2=C3c2ccc(NC(C)=O)cc2)nn1` (stereo not drawn) [MKAC412-69], “λmax Em. (nm)” value 563 nm. Against it:
- CC(=O)Nc1ccc(C2=C3C=CC(NCc4cc(F)cc(F)c4)=[N+]3[B-](F)(F)n3c2ccc3-n2cc(CN(C)Cc3ccccc3)nn2)cc1 [MKAC412-18] — lower, 561 nm
- CC(=O)Nc1ccc(C2=C3C=CC(NCc4cc(F)cc(F)c4)=[N+]3[B-](F)(F)n3c2ccc3-n2cc(CCc3ccccc3)nn2)cc1 [MKAC412-19] — lower, 562 nm
- CC(=O)Nc1ccc(C2=C3C=CC(NCc4cc(F)cc(F)c4)=[N+]3[B-](F)(F)n3c2ccc3-n2cc(CC(C)C)nn2)cc1 [MKAC412-43] — lower, 560 nm
- CCCc1cn(-c2ccc3n2[B-](F)(F)[N+]2=C(NCc4cc(F)cc(F)c4)C=CC2=C3c2ccc(NC(C)=O)cc2)nn1 [MKAC412-48] — lower, 561 nm
- CC(=O)Nc1ccc(C2=C3C=CC(NCc4cc(F)cc(F)c4)=[N+]3[B-](F)(F)n3c2ccc3-n2cc(CO)nn2)cc1 [MKAC412-70] — lower, 561 nm

same assay, conditions: MKCA compound library; absorbance maximum

Point of comparison: `CC1CN(C2=[N+]3C(=C(c4ccc(NC(=O)CCl)cc4)c4ccc(-n5cc(C6CCCC6)nn5)n4[B-]3(F)F)C=C2)CC(C)O1` (stereo not drawn) [MKCA20-5], “λmax Absorp. (nm)” value 468 nm. Against it:
- CCCC(C)c1cn(-c2ccc3n2[B-](F)(F)[N+]2=C(N4CC(C)OC(C)C4)C=CC2=C3c2ccc(NC(=O)CCl)cc2)nn1 (stereo not drawn) [MKCA20-3] — lower, 467 nm
- CC1CN(C2=[N+]3C(=C(c4ccc(NC(=O)CCl)cc4)c4ccc(-n5cc(C6CC6)nn5)n4[B-]3(F)F)C=C2)CC(C)O1 (stereo not drawn) [MKCA20-4] — lower, 466 nm
- CC1CN(C2=[N+]3C(=C(c4ccc(NC(=O)CCl)cc4)c4ccc(-n5cc(CC6CCCCC6)nn5)n4[B-]3(F)F)C=C2)CC(C)O1 (stereo not drawn) [MKCA20-8] — lower, 466 nm
- CC1CN(C2=[N+]3C(=C(c4ccc(NC(=O)CCl)cc4)c4ccc(-n5cc(CN(C)Cc6ccccc6)nn5)n4[B-]3(F)F)C=C2)CC(C)O1 (stereo not drawn) [MKCA20-18] — lower, 466 nm
- CC1CN(C2=[N+]3C(=C(c4ccc(NC(=O)CCl)cc4)c4ccc(-n5cc(CCc6ccccc6)nn5)n4[B-]3(F)F)C=C2)CC(C)O1 (stereo not drawn) [MKCA20-19] — lower, 467 nm
- CC(C)Cc1cn(-c2ccc3n2[B-](F)(F)[N+]2=C(N4CC(C)OC(C)C4)C=CC2=C3c2ccc(NC(=O)CCl)cc2)nn1 (stereo not drawn) [MKCA20-43] — the same, 468 nm
- CCCc1cn(-c2ccc3n2[B-](F)(F)[N+]2=C(N4CC(C)OC(C)C4)C=CC2=C3c2ccc(NC(=O)CCl)cc2)nn1 (stereo not drawn) [MKCA20-48] — lower, 466 nm
- CCCCCC(O)c1cn(-c2ccc3n2[B-](F)(F)[N+]2=C(N4CC(C)OC(C)C4)C=CC2=C3c2ccc(NC(=O)CCl)cc2)nn1 (stereo not drawn) [MKCA20-69] — higher, 469 nm

same assay, conditions: MKCA compound library; fluorescence emission maximum

Point of comparison: `CC1CN(C2=[N+]3C(=C(c4ccc(NC(=O)CCl)cc4)c4ccc(-n5cc(C6CCCC6)nn5)n4[B-]3(F)F)C=C2)CC(C)O1` (stereo not drawn) [MKCA20-5], “λmax Emission (nm)” value 581 nm. Against it:
- CCCC(C)c1cn(-c2ccc3n2[B-](F)(F)[N+]2=C(N4CC(C)OC(C)C4)C=CC2=C3c2ccc(NC(=O)CCl)cc2)nn1 (stereo not drawn) [MKCA20-3] — the same, 581 nm
- CC1CN(C2=[N+]3C(=C(c4ccc(NC(=O)CCl)cc4)c4ccc(-n5cc(C6CC6)nn5)n4[B-]3(F)F)C=C2)CC(C)O1 (stereo not drawn) [MKCA20-4] — the same, 581 nm
- CC1CN(C2=[N+]3C(=C(c4ccc(NC(=O)CCl)cc4)c4ccc(-n5cc(CC6CCCCC6)nn5)n4[B-]3(F)F)C=C2)CC(C)O1 (stereo not drawn) [MKCA20-8] — lower, 573 nm
- CC1CN(C2=[N+]3C(=C(c4ccc(NC(=O)CCl)cc4)c4ccc(-n5cc(CN(C)Cc6ccccc6)nn5)n4[B-]3(F)F)C=C2)CC(C)O1 (stereo not drawn) [MKCA20-18] — higher, 585 nm
- CC1CN(C2=[N+]3C(=C(c4ccc(NC(=O)CCl)cc4)c4ccc(-n5cc(CCc6ccccc6)nn5)n4[B-]3(F)F)C=C2)CC(C)O1 (stereo not drawn) [MKCA20-19] — higher, 583 nm
- CC(C)Cc1cn(-c2ccc3n2[B-](F)(F)[N+]2=C(N4CC(C)OC(C)C4)C=CC2=C3c2ccc(NC(=O)CCl)cc2)nn1 (stereo not drawn) [MKCA20-43] — higher, 585 nm
- CCCc1cn(-c2ccc3n2[B-](F)(F)[N+]2=C(N4CC(C)OC(C)C4)C=CC2=C3c2ccc(NC(=O)CCl)cc2)nn1 (stereo not drawn) [MKCA20-48] — lower, 569 nm
- CCCCCC(O)c1cn(-c2ccc3n2[B-](F)(F)[N+]2=C(N4CC(C)OC(C)C4)C=CC2=C3c2ccc(NC(=O)CCl)cc2)nn1 (stereo not drawn) [MKCA20-69] — higher, 586 nm
